Source: patent US20090298820A1, “3-SUBSTITUTED-1H-PYRROLO[2,3-B]PYRIDINE AND 3-SUBSTITUTED-1H-PYRROLO[3,2-B]PYRIDINE COMPOUNDS, THEIR USE AS MTOR KINASE AND PI3 KINASE INHIBITORS, AND THEIR SYNTHESES” (Wyeth, priority 2008, published 2009)

Legend:
PI3Kα = PI3Kα (Homo sapiens, UniProt P42336); test: PI3K-alpha fluorescence polarization assay; format: biochemical; details: read-out: PI3Kα Median IC50
PI3Kγ = PI3Kγ (Homo sapiens, UniProt P48736); test: PI3K-gamma fluorescence polarization assay; format: biochemical; details: read-out: PI3Kγ Median IC50
mTOR = mTOR (Homo sapiens, UniProt P42345); test: mTOR enzyme assay (DELFIA format, His6-S6K substrate); format: biochemical; details: read-out: mTOR Kinase Median IC50

PI3Kγ, sequence (P48736 whole entry, species assumed): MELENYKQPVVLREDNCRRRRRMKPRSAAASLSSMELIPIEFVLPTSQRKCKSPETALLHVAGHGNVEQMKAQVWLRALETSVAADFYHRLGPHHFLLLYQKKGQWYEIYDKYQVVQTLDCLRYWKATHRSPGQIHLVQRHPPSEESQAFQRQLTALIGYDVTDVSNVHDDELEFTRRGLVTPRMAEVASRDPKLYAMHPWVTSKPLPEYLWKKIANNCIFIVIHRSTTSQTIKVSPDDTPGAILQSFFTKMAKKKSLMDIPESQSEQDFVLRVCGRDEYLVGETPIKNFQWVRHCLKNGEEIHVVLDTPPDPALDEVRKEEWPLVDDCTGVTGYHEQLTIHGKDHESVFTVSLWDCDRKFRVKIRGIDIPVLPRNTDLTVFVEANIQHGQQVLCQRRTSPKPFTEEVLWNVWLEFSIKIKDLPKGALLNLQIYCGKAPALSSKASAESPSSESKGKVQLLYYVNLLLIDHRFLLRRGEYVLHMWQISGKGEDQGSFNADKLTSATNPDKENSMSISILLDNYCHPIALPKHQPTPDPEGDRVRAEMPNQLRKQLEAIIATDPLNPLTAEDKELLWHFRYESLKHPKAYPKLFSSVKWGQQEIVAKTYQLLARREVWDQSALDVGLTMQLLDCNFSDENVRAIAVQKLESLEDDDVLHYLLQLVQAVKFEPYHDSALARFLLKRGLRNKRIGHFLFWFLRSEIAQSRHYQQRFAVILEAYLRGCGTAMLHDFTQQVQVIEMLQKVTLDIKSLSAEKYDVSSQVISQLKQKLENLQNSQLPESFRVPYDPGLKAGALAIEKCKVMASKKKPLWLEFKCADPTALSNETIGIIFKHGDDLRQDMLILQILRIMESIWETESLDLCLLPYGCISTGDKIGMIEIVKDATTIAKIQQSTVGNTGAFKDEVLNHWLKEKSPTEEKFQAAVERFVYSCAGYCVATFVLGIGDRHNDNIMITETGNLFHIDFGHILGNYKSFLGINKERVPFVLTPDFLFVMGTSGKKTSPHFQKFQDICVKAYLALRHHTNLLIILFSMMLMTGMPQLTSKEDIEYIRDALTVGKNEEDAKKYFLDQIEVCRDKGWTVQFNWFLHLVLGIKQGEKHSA
PI3Kα, sequence (P42336 whole entry, species assumed): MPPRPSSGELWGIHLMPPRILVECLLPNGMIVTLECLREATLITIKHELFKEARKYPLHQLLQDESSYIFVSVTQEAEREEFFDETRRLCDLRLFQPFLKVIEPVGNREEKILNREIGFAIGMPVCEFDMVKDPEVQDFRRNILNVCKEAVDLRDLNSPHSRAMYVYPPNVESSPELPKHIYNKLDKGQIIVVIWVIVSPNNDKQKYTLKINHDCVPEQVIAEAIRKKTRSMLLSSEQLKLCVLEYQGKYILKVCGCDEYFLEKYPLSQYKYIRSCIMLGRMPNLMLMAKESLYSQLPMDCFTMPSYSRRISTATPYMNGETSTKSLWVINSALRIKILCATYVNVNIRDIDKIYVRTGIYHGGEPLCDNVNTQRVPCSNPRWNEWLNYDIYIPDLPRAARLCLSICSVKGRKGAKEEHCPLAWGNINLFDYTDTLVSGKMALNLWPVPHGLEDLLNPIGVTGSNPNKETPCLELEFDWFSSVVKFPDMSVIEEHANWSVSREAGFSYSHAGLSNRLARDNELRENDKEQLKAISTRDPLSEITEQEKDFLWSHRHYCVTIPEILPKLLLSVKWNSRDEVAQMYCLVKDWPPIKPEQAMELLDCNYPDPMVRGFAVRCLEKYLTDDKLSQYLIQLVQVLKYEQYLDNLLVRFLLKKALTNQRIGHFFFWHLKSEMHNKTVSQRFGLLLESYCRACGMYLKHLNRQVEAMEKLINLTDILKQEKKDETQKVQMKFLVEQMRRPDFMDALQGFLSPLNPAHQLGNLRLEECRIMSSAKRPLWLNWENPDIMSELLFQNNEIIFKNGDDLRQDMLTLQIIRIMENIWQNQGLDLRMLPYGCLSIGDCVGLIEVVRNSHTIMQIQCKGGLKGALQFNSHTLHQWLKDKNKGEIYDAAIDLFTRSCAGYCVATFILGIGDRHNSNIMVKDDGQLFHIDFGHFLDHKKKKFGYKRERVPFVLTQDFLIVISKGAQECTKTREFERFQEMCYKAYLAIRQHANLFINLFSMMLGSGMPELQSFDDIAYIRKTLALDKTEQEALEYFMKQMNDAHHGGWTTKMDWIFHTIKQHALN
PI3Kα, sequence (P27986 whole entry partner, species assumed): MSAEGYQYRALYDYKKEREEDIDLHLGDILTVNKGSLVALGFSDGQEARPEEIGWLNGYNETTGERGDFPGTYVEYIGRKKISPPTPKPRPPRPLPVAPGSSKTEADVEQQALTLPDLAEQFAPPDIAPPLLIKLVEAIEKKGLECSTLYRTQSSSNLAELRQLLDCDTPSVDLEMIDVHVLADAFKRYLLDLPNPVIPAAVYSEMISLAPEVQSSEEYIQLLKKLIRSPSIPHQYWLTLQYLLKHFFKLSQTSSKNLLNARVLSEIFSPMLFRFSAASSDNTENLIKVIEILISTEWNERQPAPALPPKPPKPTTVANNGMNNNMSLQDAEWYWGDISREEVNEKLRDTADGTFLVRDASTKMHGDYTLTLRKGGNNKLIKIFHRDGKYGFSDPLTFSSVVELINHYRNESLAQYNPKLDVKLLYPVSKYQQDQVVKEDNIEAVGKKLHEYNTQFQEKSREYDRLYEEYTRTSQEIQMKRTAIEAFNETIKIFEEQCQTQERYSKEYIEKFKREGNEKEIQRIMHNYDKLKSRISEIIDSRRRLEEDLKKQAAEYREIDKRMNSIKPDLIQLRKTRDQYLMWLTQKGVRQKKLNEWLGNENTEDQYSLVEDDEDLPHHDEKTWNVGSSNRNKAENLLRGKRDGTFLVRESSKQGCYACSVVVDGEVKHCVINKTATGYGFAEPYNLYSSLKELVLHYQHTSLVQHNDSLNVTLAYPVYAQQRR

Compound	IC50 (PI3Kα)	IC50 (PI3Kγ)	IC50 (mTOR)	melting point
CNC(=O)Nc1ccc2c(c1)C(=O)/C(=C/c1cn(C)c3nccc(-c4ccccc4)c13)O2 [Compound 38, 1-methyl-3-{(2Z)-2-[(1-methyl-4-phenyl-1H-pyrrolo[2,3-b]pyridin-3-yl)methylene]-3-oxo-2,3-dihydro-1-benzofuran-5-yl}urea]	0.234 µM	1.57 µM	0.037 µM	265 to 270 °C (dec.)
Cn1cc(/C=C2\Oc3cc(O)cc(O)c3C2=O)c2c(C#Cc3ccccc3)ccnc21 [Compound 39, (2Z)-4,6-dihydroxy-2-{[1-methyl-4-(phenylethynyl)-1H-pyrrolo[2,3-b]pyridin-3-yl]methylene}-1-benzofuran-3(2H)-one]	0.106 µM	0.104 µM	0.0057 µM	308 to 310 °C
Cn1cc(/C=C2\Oc3cc(O)cc(O)c3C2=O)c2c(N3CCCCC3)ccnc21 [Compound 40, (2Z)-4,6-dihydroxy-2-[(1-methyl-4-piperidin-1-yl-1H-pyrrolo[2,3-b]pyridin-3-yl)methylene]-1-benzofuran-3(2H)-one]	0.068 µM	0.282 µM	0.0006 µM	322 to 324 °C
Cn1cc(/C=C2\Oc3ccc(O)cc3C2=O)c2c(-c3ccccc3)ccnc21 [Compound 42, (2Z)-5-hydroxy-2-[(1-methyl-4-phenyl-1H-pyrrolo[2,3-b]pyridin-3-yl)methylene]-1-benzofuran-3(2H)-one]	0.129 µM	> 10 µM	0.0225 µM	352 to 354 °C (dec.)
Cn1cc(/C=C2\Oc3cc(O)cc(O)c3C2=O)c2c(N3CCCC3)ccnc21 [Compound 46, (2Z)-4,6-dihydroxy-2-[(1-methyl-4-pyrrolidin-1-yl-1H-pyrrolo[2,3-b]pyridin-3-yl)methylene]-1-benzofuran-3(2H)-one]	0.059 µM	0.24 µM	0.0016 µM	312 to 315 °C
Cn1cc(/C=C2\Oc3ccc(N)cc3C2=O)c2c(-c3ccccc3)ccnc21 [Compound 58, (2Z)-5-amino-2-[(1-methyl-4-phenyl-1H-pyrrolo[2,3-b]pyridin-3-yl)methylene]-1-benzofuran-3(2H)-one]	0.199 µM	0.966 µM	0.0165 µM	232 to 239 °C
Cn1cc(/C=C2\Oc3ccc(NC(=O)OCCO)cc3C2=O)c2c(-c3ccccc3)ccnc21 [Compound 60, 2-hydroxyethyl {(2Z)-2-[(1-methyl-4-phenyl-1H-pyrrolo[2,3-b]pyridin-3-yl)methylene]-3-oxo-2,3-dihydro-1-benzofuran-5-yl}carbamate]	> 10 µM	> 10 µM	0.0585 µM	233 to 235 °C
Cn1cc(/C=C2\Oc3cc(O)cc(O)c3C2=O)c2c(-c3ccc(Cl)nc3)ccnc21 [Compound 63, (2Z)-2-{[4-(6-chloropyridin-3-yl)-1-methyl-1H-pyrrolo[2,3-b]pyridin-3-yl]methylene}-4,6-dihydroxy-1-benzofuran-3(2H)-one]	0.008 µM	0.024 µM	0.0015 µM	340 °C
Cn1cc(/C=C2\Oc3cc(O)cc(O)c3C2=O)c2c(-c3ccc(Cl)cc3)ccnc21 [Compound 64, (2Z)-2-{[4-(4-chlorophenyl)-1-methyl-1H-pyrrolo[2,3-b]pyridin-3-yl]methylene}-4,6-dihydroxy-1-benzofuran-3(2H)-one]	0.029 µM	0.081 µM	0.0018 µM	345 °C
Cn1cc(/C=C2\Oc3cc(O)cc(O)c3C2=O)c2c(N3CCCCCC3)ccnc21 [Compound 65, (2Z)-2-[(4-azepan-1-yl-1-methyl-1H-pyrrolo[2,3-b]pyridin-3-yl)methylene]-4,6-dihydroxy-1-benzofuran-3(2H)-one]	0.041 µM	0.06 µM	0.0006 µM	297 to 300 °C
COc1cccc(-c2ccnc3c2c(/C=C2\Oc4cc(O)cc(O)c4C2=O)cn3C)c1 [Compound 66, (2Z)-4,6-dihydroxy-2-{[4-(3-methoxyphenyl)-1-methyl-1H-pyrrolo[2,3-b]pyridin-3-yl]methylene}-1-benzofuran-3(2H)-one]	0.032 µM	0.061 µM	0.0014 µM	297 to 300 °C
Cn1cc(/C=C2\Oc3cc(O)cc(O)c3C2=O)c2c(-c3ccc(CO)cc3)ccnc21 [Compound 67, (2Z)-4,6-dihydroxy-2-({4-[4-(hydroxymethyl)phenyl]-1-methyl-1H-pyrrolo[2,3-b]pyridin-3-yl}methylene)-1-benzofuran-3(2H)-one]	0.007 µM	0.021 µM	0.0002 µM	> 330 °C
Cn1cc(/C=C2\Oc3cccc(NC(=O)C(C)(C)C)c3C2=O)c2c(-c3ccccc3)ccnc21 [Compound 68, 2,2-dimethyl-N-{(2Z)-2-[(1-methyl-4-phenyl-1H-pyrrolo[2,3-b]pyridin-3-yl)methylene]-3-oxo-2,3-dihydro-1-benzofuran-4-yl}propanamide]	> 10 µM	1.8 µM	> 4 µM	251 to 253 °C
COc1ccc(-c2ccnc3c2c(/C=C2\Oc4cccc(O)c4C2=O)cn3C)cn1 [Compound 71, (2Z)-4-hydroxy-2-{[4-(6-methoxypyridin-3-yl)-1-methyl-1H-pyrrolo[2,3-b]pyridin-3-yl]methylene}-1-benzofuran-3(2H)-one]	0.062 µM	0.249 µM	0.016 µM	242 to 244 °C
Cn1cc(/C=C2\Oc3cc(O)cc(O)c3C2=O)c2c(-c3ccc(S(C)(=O)=O)cc3)ccnc21 [Compound 72, (2Z)-4,6-dihydroxy-2-({1-methyl-4-[4-(methylsulfonyl)phenyl]-1H-pyrrolo[2,3-b]pyridin-3-yl}methylene)-1-benzofuran-3(2H)-one]	0.005 µM	0.066 µM	0.0007 µM	276 to 286 °C
Cn1cc(/C=C2\Oc3cc(O)cc(O)c3C2=O)c2c(-c3cccc(S(C)(=O)=O)c3)ccnc21 [Compound 74, (2Z)-4,6-dihydroxy-2-({1-methyl-4-[3-(methylsulfonyl)phenyl]-1H-pyrrolo[2,3-b]pyridin-3-yl}methylene)-1-benzofuran-3(2H)-one]	0.014 µM	0.132 µM	0.0016 µM	315 to 320 °C
Cn1cc(/C=C2\Oc3cccc(O)c3C2=O)c2c(-c3cccc(S(C)(=O)=O)c3)ccnc21 [Compound 75, (2Z)-4-hydroxy-2-({1-methyl-4-[3-(methylsulfonyl)phenyl]-1H-pyrrolo[2,3-b]pyridin-3-yl}methylene)-1-benzofuran-3(2H)-one]	0.092 µM	0.319 µM	0.0103 µM	310 to 318 °C
Cn1cc(/C=C2\Oc3cccc(O)c3C2=O)c2c(-c3ccc(CO)nc3)ccnc21 [Compound 76, (2Z)-4-hydroxy-2-({4-[6-(hydroxymethyl)pyridin-3-yl]-1-methyl-1H-pyrrolo[2,3-b]pyridin-3-yl}methylene)-1-benzofuran-3(2H)-one]	0.041 µM	0.132 µM	0.0085 µM	270 to 275 °C
CC1CN(c2ccnc3c2c(/C=C2\Oc4cccc(O)c4C2=O)cn3C)CC(C)O1 (stereo not shown) [Compound 93, (2Z)-2-{[4-(2,6-dimethylmorpholin-4-yl)-1-methyl-1H-pyrrolo[2,3-b]pyridin-3-yl]methylene}-4-hydroxy-1-benzofuran-3(2H)-one]	0.085 µM	0.124 µM	0.0013 µM	280 °C
Cn1cc(/C=C2\Oc3cc(O)cc(O)c3C2=O)c2c(Oc3ccccc3)ccnc21 [Compound 94, (2Z)-4,6-dihydroxy-2-[(1-methyl-4-phenoxy-1H-pyrrolo[2,3-b]pyridin-3-yl)methylene]-1-benzofuran-3(2H)-one]	0.043 µM	0.351 µM	0.0105 µM	330 to 332 °C
Cn1cc(/C=C2\Oc3cccc(O)c3C2=O)c2c(O)ccnc21 [Compound 95, (2Z)-4-hydroxy-2-[(4-hydroxy-1-methyl-1H-pyrrolo[2,3-b]pyridin-3-yl)methylene]-1-benzofuran-3(2H)-one]	0.479 µM	3.24 µM	2 µM	325 °C
CNC(=O)Nc1cccc2c1C(=O)/C(=C/c1cn(C)c3nccc(-c4ccccc4)c13)O2 [Compound 99, 1-methyl-3-{(2Z)-2-[(1-methyl-4-phenyl-1H-pyrrolo[2,3-b]pyridin-3-yl)methylene]-3-oxo-2,3-dihydro-1-benzofuran-4-yl}urea]	> 10 µM	2.23 µM	3.5 µM	273 to 275 °C
CC1CC(C)CN(c2ccnc3c2c(/C=C2\Oc4cccc(O)c4C2=O)cn3C)C1 (stereo not shown) [Compound 100, (2Z)-2-{[4-(3,5-dimethylpiperidin-1-yl)-1-methyl-1H-pyrrolo[2,3-b]pyridin-3-yl]methylene}-4-hydroxy-1-benzofuran-3(2H)-one]	0.806 µM	> 10 µM	0.015 µM	235 to 240 °C
Cn1cc(/C=C2\Oc3cccc(O)c3C2=O)c2c(N3CC4CC3CN4)ccnc21 (stereo not shown) [Compound 101, (2Z)-2-{[4-(2,5-diazabicyclo[2.2.1]hept-2-yl)-1-methyl-1H-pyrrolo[2,3-b]pyridin-3-yl]methylene}-4-hydroxy-1-benzofuran-3(2H)-one]	0.02 µM	0.339 µM	0.0108 µM	325 °C
Cn1cc(/C=C2\Oc3cccc(O)c3C2=O)c2c(N3CCSCC3)ccnc21 [Compound 102, (2Z)-4-hydroxy-2-[(1-methyl-4-thiomorpholin-4-yl-1H-pyrrolo[2,3-b]pyridin-3-yl)methylene]-1-benzofuran-3(2H)-one]	0.104 µM	0.271 µM	0.0019 µM	285 to 290 °C
